Assay [1] has as its system Candida albicans. Briefly: Antimicrobial activity against Candida albicans ATCC 76615. Type of assay: functional.
In assay [2] the test system is Candida parapsilosis. The experiment in a line: Antimicrobial activity against […] isolates. Type of assay: functional. Conditions: Lodderomyces parapsilosis.
The subject of assay [3] is Candida tropicalis. Briefly: Antimicrobial activity against Candida tropicalis isolates. It counts as functional.
The subject of assay [4] is Cryptococcus neoformans. The experiment in a line: Antimicrobial activity against Cryptococcus neoformans ATCC 32609. Type of assay: functional.
In assay [5] the test system is Aspergillus fumigatus. Briefly: Antimicrobial activity against Aspergillus fumigatus isolates. Type of assay: functional.
Assay [6] deals with Trichophyton rubrum. The experiment in a line: Antimicrobial activity against Trichophyton rubrum isolates. It counts as functional.
The subject of assay [7] is Nannizzia gypsea. Briefly: Antimicrobial activity against Microsporum gypseum isolates. Type of assay: functional.
Assay [8] relates to Fonsecaea compacta. Briefly: Antimicrobial activity against Fonsecaea compacta isolates. Type of assay: functional.
Assay [9] relates to Candida parapsilosis. The experiment in a line: Antimicrobial activity against Candida parapsilosis isolates. Particulars: Lodderomyces parapsilosis.

Values after ≈ are worked out from the molar mass of the structure shown.

As a reminder, the MIC is the lowest concentration found to suppress growth. Lower therefore signals a more susceptible organism.

On to `ON=Cc1ccc(-c2ccc(OCC(O)(Cn3cncn3)c3ccc(F)cc3F)cc2)cc1` (stereo unspecified), for which the MIC was 0.0039 µg/mL (≈ 0.00866 µM) in assay [1]; 0.0039 µg/mL (≈ 0.00866 µM) in assay [2]; 0.0156 µg/mL (≈ 0.0346 µM) in assay [3]; 1 µg/mL (≈ 2.22 µM) in [4]; more than 64 µg/mL in assay [5]; 1 µg/mL (≈ 2.22 µM) in [6]. The MIC in assay [7] and in assay [8] was 1 µg/mL (≈ 2.22 µM) each time.

For the molecule `Oc1ccc(CNc2ccc(-c3ccc(OCC(O)(Cn4cncn4)c4ccc(F)cc4F)cc3)cn2)cc1` (stereo unspecified), the MIC in [1] is 0.0625 µg/mL (≈ 0.118 µM); in assay [3], 0.0156 µg/mL (≈ 0.0295 µM); in assay [4], more than 64 µg/mL; in [5], more than 64 µg/mL; in [6], more than 64 µg/mL; in [7], 4 µg/mL (≈ 7.55 µM). The minimal inhibitory concentration (MIC) was determined as 1 µg/mL (≈ 1.89 µM) in assay [8] and 0.0625 µg/mL (≈ 0.118 µM) in assay [9].

Regarding `CN(C)Cc1ccc(-c2ccc(OCC(O)(Cn3cncn3)c3ccc(F)cc3F)cc2)cc1` (stereo unspecified), the MIC came to 0.25 µg/mL (≈ 0.538 µM) in assay [1]; 0.0625 µg/mL (≈ 0.135 µM) in assay [3]; 4 µg/mL (≈ 8.61 µM) in assay [4]; 64 µg/mL (≈ 138 µM) in [5]; 0.0625 µg/mL (≈ 0.135 µM) in assay [6]; 1 µg/mL (≈ 2.15 µM) in [7]. In addition, the minimal inhibitory concentration (MIC) was 4 µg/mL (≈ 8.61 µM) in [8] and 0.25 µg/mL (≈ 0.538 µM) in assay [9].

On to `CCC(C)n1ncn(-c2ccc(N3CCN(c4ccc(OC[C@H]5CO[C@](Cn6cncn6)(c6ccc(Cl)cc6Cl)O5)cc4)CC3)cc2)c1=O` (stereo partly specified) [ITRACONAZOLE], for which the MIC in [1] was 0.5 µg/mL (≈ 0.709 µM); in [3] it was 0.25 µg/mL (≈ 0.354 µM); in assay [4] it was 1 µg/mL (≈ 1.42 µM); in assay [5], 1 µg/mL (≈ 1.42 µM); in assay [6], 0.0156 µg/mL (≈ 0.0221 µM); in assay [7] it was 0.0625 µg/mL (≈ 0.0886 µM). For the same molecule, the MIC in assay [8] was 0.0625 µg/mL (≈ 0.0886 µM); in assay [9], 0.0312 µg/mL (≈ 0.0442 µM).

Consider `Cc1ccc(C(=O)Nc2ccc(-c3ccc(OCC(O)(Cn4cncn4)c4ccc(F)cc4F)cc3)cn2)cc1` (stereo unspecified), for which the MIC is 0.0625 µg/mL (≈ 0.115 µM) in assay [1]; 0.0625 µg/mL (≈ 0.115 µM) in [3]; 0.25 µg/mL (≈ 0.462 µM) in assay [4]; more than 64 µg/mL in assay [5]; 0.0625 µg/mL (≈ 0.115 µM) in [6]; 0.25 µg/mL (≈ 0.462 µM) in [7]. For the same molecule, the MIC in assay [8] stood at 1 µg/mL (≈ 1.85 µM); in assay [9], 0.0625 µg/mL (≈ 0.115 µM).

For the molecule `O=C(CN1CCCCC1)Nc1ccc(-c2ccc(OCC(O)(Cn3cncn3)c3ccc(F)cc3F)cc2)cn1` (stereo unspecified), the minimal inhibitory concentration (MIC) in assay [1] was 0.0625 µg/mL (≈ 0.114 µM); in [3], 0.0156 µg/mL (≈ 0.0284 µM); in assay [4] it was 1 µg/mL (≈ 1.82 µM); in assay [5], more than 64 µg/mL; in assay [6], 0.25 µg/mL (≈ 0.456 µM); in [7], 0.25 µg/mL (≈ 0.456 µM). For the same molecule, the MIC in [8] was found to be 1 µg/mL (≈ 1.82 µM); in assay [9] it was 0.0625 µg/mL (≈ 0.114 µM).

For the molecule `OC(COc1ccc(-c2ccc(NCc3ccccc3)nc2)cc1)(Cn1cncn1)c1ccc(F)cc1F` (stereo unspecified), the minimum inhibitory concentration (MIC) in assay [1] is 0.25 µg/mL (≈ 0.487 µM); in assay [3], 0.25 µg/mL (≈ 0.487 µM); in [4], 1 µg/mL (≈ 1.95 µM); in assay [5], 4 µg/mL (≈ 7.79 µM); in [6], 0.25 µg/mL (≈ 0.487 µM); in assay [7], more than 64 µg/mL. Besides, the MIC in [8] was found to be 4 µg/mL (≈ 7.79 µM); in [9] it was 0.0625 µg/mL (≈ 0.122 µM).

`OC(COc1ccc(-c2ccc(CNc3cccc(Cl)c3)cc2)cc1)(Cn1cncn1)c1ccc(F)cc1F` (stereo unspecified): the MIC in assay [1] is 0.25 µg/mL (≈ 0.457 µM); in assay [3], 0.25 µg/mL (≈ 0.457 µM); in assay [4] it was more than 64 µg/mL; in [5] it was more than 64 µg/mL; in assay [6] it was 1 µg/mL (≈ 1.83 µM); in [7] it was more than 64 µg/mL. Further, the MIC in assay [8] is more than 64 µg/mL; in assay [9], 0.25 µg/mL (≈ 0.457 µM).

With `C[C@@H]1[C@H](O)[C@@H](C)/C=C/C=C/C=C/C=C/C=C/C=C/C=C/[C@H](O[C@@H]2O[C@H](C)[C@@H](O)[C@H](N)[C@@H]2O)C[C@@H]2O[C@](O)(C[C@@H](O)C[C@@H](O)[C@H](O)CC[C@@H](O)C[C@@H](O)CC(=O)O[C@H]1C)C[C@H](O)[C@H]2C(=O)O` [AMPHOTERICIN B], the MIC in assay [1] turned out to be 0.25 µg/mL (≈ 0.271 µM); in assay [3], 4 µg/mL (≈ 4.33 µM); in [4], 1 µg/mL (≈ 1.08 µM); in assay [5], 16 µg/mL (≈ 17.3 µM); in [6], 16 µg/mL (≈ 17.3 µM); in [7], 1 µg/mL (≈ 1.08 µM). For the same molecule, the MIC in assay [8] was found to be 16 µg/mL (≈ 17.3 µM); in assay [9], 1 µg/mL (≈ 1.08 µM).

For the molecule `O=C(CCl)Nc1ccc(-c2ccc(OCC(O)(Cn3cncn3)c3ccc(F)cc3F)cc2)cn1` (stereo unspecified), the MIC in assay [1] is 0.25 µg/mL (≈ 0.5 µM); in assay [3], 0.25 µg/mL (≈ 0.5 µM); in [4], 1 µg/mL (≈ 2 µM); in [5], more than 64 µg/mL; in [6], 0.25 µg/mL (≈ 0.5 µM); in assay [7] it was 1 µg/mL (≈ 2 µM). Also, the MIC in assay [8] was 1 µg/mL (≈ 2 µM); in assay [9] it was 0.25 µg/mL (≈ 0.5 µM).

For `Oc1ccccc1CNc1ccc(-c2ccc(OCC(O)(Cn3cncn3)c3ccc(F)cc3F)cc2)cn1` (stereo unspecified), the MIC in assay [1] is 0.0625 µg/mL (≈ 0.118 µM); in [3], 0.0625 µg/mL (≈ 0.118 µM); in assay [4], more than 64 µg/mL; in [5], 64 µg/mL (≈ 121 µM); in [6], 0.0625 µg/mL (≈ 0.118 µM); in [7], 0.0625 µg/mL (≈ 0.118 µM). The MIC turned out to be 0.25 µg/mL (≈ 0.472 µM) in assay [8] and 0.0625 µg/mL (≈ 0.118 µM) in assay [9].

As to `CCNc1ccc(-c2ccc(OCC(O)(Cn3cncn3)c3ccc(F)cc3F)cc2)cn1` (stereo unspecified), the MIC is 0.0625 µg/mL (≈ 0.138 µM) in [1]; 0.0625 µg/mL (≈ 0.138 µM) in assay [3]; 16 µg/mL (≈ 35.4 µM) in assay [4]; more than 64 µg/mL in assay [5]; more than 64 µg/mL in assay [6]; more than 64 µg/mL in assay [7]. The MIC in assay [8] was determined as 1 µg/mL (≈ 2.21 µM); in [9], 0.0625 µg/mL (≈ 0.138 µM).

For `CNCc1ccc(-c2ccc(OCC(O)(Cn3cncn3)c3ccc(F)cc3F)cc2)cc1` (stereo unspecified), the MIC in [1] was 0.25 µg/mL (≈ 0.555 µM); in [3], 0.25 µg/mL (≈ 0.555 µM); in [4], 64 µg/mL (≈ 142 µM); in assay [5], more than 64 µg/mL; in [6], 0.0625 µg/mL (≈ 0.139 µM); in [7] it was 1 µg/mL (≈ 2.22 µM). The minimum inhibitory concentration (MIC) in [8] was 4 µg/mL (≈ 8.88 µM); in assay [9], 0.25 µg/mL (≈ 0.555 µM).

For `Nc1ccc(-c2ccc(OCC(O)(Cn3cncn3)c3ccc(F)cc3F)cc2)cn1` (stereo unspecified), the MIC in assay [1] came out at 0.0625 µg/mL (≈ 0.148 µM); in [3], 0.25 µg/mL (≈ 0.59 µM); in [4] it was 64 µg/mL (≈ 151 µM); in assay [5] it was 4 µg/mL (≈ 9.45 µM); in assay [6], 0.0156 µg/mL (≈ 0.0368 µM); in [7], 0.25 µg/mL (≈ 0.59 µM). Further, the MIC in assay [8] stood at 0.0625 µg/mL (≈ 0.148 µM); in [9], 0.25 µg/mL (≈ 0.59 µM).

Regarding `COc1ccc(C(=O)Nc2ccc(-c3ccc(OCC(O)(Cn4cncn4)c4ccc(F)cc4F)cc3)cn2)cc1` (stereo unspecified), the MIC in assay [1] is 0.0625 µg/mL (≈ 0.112 µM); in assay [3], 0.25 µg/mL (≈ 0.448 µM); in assay [4], 1 µg/mL (≈ 1.79 µM); in assay [5], 64 µg/mL (≈ 115 µM); in assay [6] it was 0.25 µg/mL (≈ 0.448 µM); in [7] it was 1 µg/mL (≈ 1.79 µM). For the same molecule, the MIC in assay [8] and in assay [9] was 0.25 µg/mL (≈ 0.448 µM) each time.

For the molecule `C[C@@H](c1ncncc1F)[C@](O)(Cn1cncn1)c1ccc(F)cc1F` [VORICONAZOLE], the MIC was determined as 0.25 µg/mL (≈ 0.716 µM) in [1]; 0.0156 µg/mL (≈ 0.0447 µM) in [3]; 1 µg/mL (≈ 2.86 µM) in assay [4]; 0.25 µg/mL (≈ 0.716 µM) in [5]; 0.0156 µg/mL (≈ 0.0447 µM) in [6]; 0.0156 µg/mL (≈ 0.0447 µM) in assay [7]. Further, the MIC in assay [8] and in [9] was 0.0625 µg/mL (≈ 0.179 µM) each time.

As for `CCN(CC)Cc1ccc(C(=O)Nc2ccc(-c3ccc(OCC(O)(Cn4cncn4)c4ccc(F)cc4F)cc3)cn2)cc1` (stereo unspecified), the MIC in assay [1] is 0.0625 µg/mL (≈ 0.102 µM); in [3], 0.0625 µg/mL (≈ 0.102 µM); in assay [4], 4 µg/mL (≈ 6.53 µM); in assay [5], more than 64 µg/mL; in [6], 1 µg/mL (≈ 1.63 µM); in assay [7] it was 1 µg/mL (≈ 1.63 µM). Moreover, the MIC in [8] and in [9] was 0.25 µg/mL (≈ 0.408 µM) throughout.

These data come from ChEMBL document CHEMBL1143091, “Synthesis and SAR studies of biaryloxy-substituted triazoles as antifungal agents” (2008).
